Patent US20250049926A1, “PHARMACEUTICAL COMPOSITIONS COMPRISING MODIFIED BETACYCLODEXTRINS” (priority 2021, published 2025)

Assay: Solubility measurement of saturated solutions by HPLC at room temperature (0 h and 24 h)
Type: physicochemical
Settings: for solubility at 0 h / solubility at 24 h: thermodynamic from solid
Description: The vial contents are prepared starting with 2.5 mg of the compound of formula (I). The primary excipient is added followed by any further excipient and then the buffered water to a total volume of 500 μL. All components are mixed in a vortex mixer for ca. 5 minutes. If everything is dissolved an additional 2.5 mg of the compound of formula (I) is added and vortexed again for ca. 5 minutes. This is repeated until a saturated solution (suspension) is obtained.
The solubility in vial 1 is measured immediately as described below.
To measure solubility 400 μl of the suspension are taken and placed in a centrifugation device above a 0.2 μm filter. Centrifugation is performed at 14,000 rpm for 10 minutes and if necessary repeated for additional 10 minutes. The filter is removed from the vial and 100 μL is taken and diluted with 400 μL high-performance liquid chromatography (HPLC) diluent solution (see below) or diluted with 900 μL HPLC diluent solution in the event 5 mg or more of the compound of formula (I) was used. The pH of the solution is measured. A further 100 μL of the vial solution is taken and diluted with 400 μL of HPLC diluent solution or diluted with 900 μL HPLC diluent solution in the event 5 mg or more of the compound of formula (I) was used. The assay of the solution versus control stock solution is measured by HPLC and the solubility is calculated as described below. The HPLC diluent solution is 0.1% trifluoroacetic acid (TFA) in acetonitrile (ACN) and water (1:1 v/v).
All solubility tests are performed at room temperature.
The HPLC method for assessing solubility is performed as follows:
The solubility of the compound of formula (I) is calculated according to the following formula:
[formula] • Solubility=solubility of compound of formula (I) (mg/mL) • A=peak area of the compound of the sample tested • a=value of constant “a” in Linear regression equation y=ax+b • b=value of constant “b” in Linear regression equation y=ax+b • n=dilution time • Formulations for stability assessment are prepared as follows: […]

[1] = buffered water with excipients, pH 2, aqueous with cosolvent or surfactant or cyclodextrin, CBS 30 mM pH 2.0, NaCl 3 mg/mL, SBE-beta-CD 40 mg/mL, pH exp 2.2

## COc1cc(N2CCNCC2)ccc1Nc1ncc2c(n1)-n1ccc(C(=O)Nc3c(C)cccc3C)c1CC2 [compound of formula (I)]
Kollidon 12 PF, Kolliphor P188, soybean lecithin
  effect of additional excipient on solubility with SBE-beta-CD: very small impact on solubility
PEG 400, glycerol, propylene glycol and PEG 4000
  effect of additional excipient on solubility with SBE-beta-CD: do not increase the solubility
Addition of Tween 80
  effect of additional excipient on solubility with SBE-beta-CD: slightly improves solubility
Addition of carboxymethylcellulose sodium, solution sticky at 24 hours
  effect of additional excipient on solubility with SBE-beta-CD: decreases solubility
Buffered water with excipient (saturated solution), pH 4, aqueous buffer, CBS 30 mM pH 4.0, Ethanol 20 mg/mL, pH exp 4.1
  solubility at 0 h: 160 µg/mL
Buffered water with excipient (saturated solution), pH 4, aqueous buffer, CBS 30 mM pH 4.0, Ethanol 20 mg/mL, pH exp 4.2
  solubility at 24 h: 110 µg/mL
Buffered water with excipient (saturated solution), pH 4, aqueous buffer, CBS 30 mM pH 4.0, PEG 400 20 mg/mL, pH exp 4.1
  solubility at 0 h: 220 µg/mL
Buffered water with excipient (saturated solution), pH 4, aqueous buffer, CBS 30 mM pH 4.0, PEG 400 20 mg/mL, pH exp 4.3
  solubility at 24 h: 150 µg/mL
Buffered water with excipient (saturated solution), pH 4, aqueous with cosolvent or surfactant or cyclodextrin, CBS 30 mM pH 4.0, NaCl 3 mg/mL, HP-beta-CD 40 mg/mL, pH exp 4.10
  solubility at 0 h: 1670 µg/mL
Buffered water with excipient (saturated solution), pH 4, aqueous with cosolvent or surfactant or cyclodextrin, CBS 30 mM pH 4.0, NaCl 3 mg/mL, HP-beta-CD 40 mg/mL, pH exp 4.28
  solubility at 24 h: 980 µg/mL
Buffered water with excipient (saturated solution), pH 4, aqueous with cosolvent or surfactant or cyclodextrin, CBS 30 mM pH 4.0, NaCl 3 mg/mL, SBE-beta-CD 10 mg/mL, pH exp 4.1
  solubility at 0 h: 890 µg/mL
Buffered water with excipient (saturated solution), pH 4, aqueous with cosolvent or surfactant or cyclodextrin, CBS 30 mM pH 4.0, NaCl 3 mg/mL, SBE-beta-CD 10 mg/mL, pH exp 4.2
  solubility at 24 h: 1110 µg/mL
Buffered water with excipient (saturated solution), pH 4, aqueous with cosolvent or surfactant or cyclodextrin, CBS 30 mM pH 4.0, NaCl 3 mg/mL, SBE-beta-CD 25 mg/mL, pH exp 4.1
  solubility at 0 h: 1840 µg/mL
Buffered water with excipient (saturated solution), pH 4, aqueous with cosolvent or surfactant or cyclodextrin, CBS 30 mM pH 4.0, NaCl 3 mg/mL, SBE-beta-CD 25 mg/mL, pH exp 4.2
  solubility at 24 h: 2540 µg/mL
Buffered water with excipient (saturated solution), pH 4, aqueous with cosolvent or surfactant or cyclodextrin, CBS 30 mM pH 4.0, NaCl 3 mg/mL, SBE-beta-CD 40 mg/mL, pH exp 4.0
  solubility at 0 h: 2480 µg/mL
Buffered water with excipient (saturated solution), pH 4, aqueous with cosolvent or surfactant or cyclodextrin, CBS 30 mM pH 4.0, NaCl 3 mg/mL, SBE-beta-CD 40 mg/mL, pH exp 4.2
  solubility at 24 h: 3800 µg/mL
Buffered water with excipient (saturated solution), pH 4, aqueous with cosolvent or surfactant or cyclodextrin, CBS 30 mM pH 4.0, Ethanol 50 mg/mL, pH exp 4.2
  solubility at 0 h: 190 µg/mL
Buffered water with excipient (saturated solution), pH 4, aqueous with cosolvent or surfactant or cyclodextrin, CBS 30 mM pH 4.0, Ethanol 50 mg/mL, pH exp 4.3
  solubility at 24 h: 90 µg/mL
Buffered water with excipient (saturated solution), pH 4, aqueous with cosolvent or surfactant or cyclodextrin, CBS 30 mM pH 4.0, Ethanol 100 mg/mL, pH exp 4.2
  solubility at 0 h: 260 µg/mL
Buffered water with excipient (saturated solution), pH 4, aqueous with cosolvent or surfactant or cyclodextrin, CBS 30 mM pH 4.0, Ethanol 100 mg/mL, pH exp 4.4
  solubility at 24 h: 140 µg/mL
Buffered water with excipient (saturated solution), pH 4, aqueous with cosolvent or surfactant or cyclodextrin, CBS 30 mM pH 4.0, Glycerol 50 mg/mL, pH exp 4.1
  solubility at 0 h: 180 µg/mL
Buffered water with excipient (saturated solution), pH 4, aqueous with cosolvent or surfactant or cyclodextrin, CBS 30 mM pH 4.0, Glycerol 50 mg/mL, pH exp 4.3
  solubility at 24 h: 120 µg/mL
Buffered water with excipient (saturated solution), pH 4, aqueous with cosolvent or surfactant or cyclodextrin, CBS 30 mM pH 4.0, Glycerol 100 mg/mL, pH exp 4.1
  solubility at 0 h: 210 µg/mL
Buffered water with excipient (saturated solution), pH 4, aqueous with cosolvent or surfactant or cyclodextrin, CBS 30 mM pH 4.0, Glycerol 100 mg/mL, pH exp 4.3
  solubility at 24 h: 130 µg/mL
Buffered water with excipient (saturated solution), pH 4, aqueous with cosolvent or surfactant or cyclodextrin, CBS 30 mM pH 4.0, Glycerol 500 mg/mL, pH exp 4.6
  solubility at 0 h: 1060 µg/mL
Buffered water with excipient (saturated solution), pH 4, aqueous with cosolvent or surfactant or cyclodextrin, CBS 30 mM pH 4.0, Glycerol 500 mg/mL, pH exp 4.8
  solubility at 24 h: 260 µg/mL
Buffered water with excipient (saturated solution), pH 4, aqueous with cosolvent or surfactant or cyclodextrin, CBS 30 mM pH 4.0, PEG 100 mg/mL, pH exp 4.3
  solubility at 0 h: 600 µg/mL
Buffered water with excipient (saturated solution), pH 4, aqueous with cosolvent or surfactant or cyclodextrin, CBS 30 mM pH 4.0, PEG 100 mg/mL, pH exp 4.5
  solubility at 24 h: 400 µg/mL
Buffered water with excipient (saturated solution), pH 4, aqueous with cosolvent or surfactant or cyclodextrin, CBS 30 mM pH 4.0, PEG 400 50 mg/mL, pH exp 4.1
  solubility at 0 h: 340 µg/mL
Buffered water with excipient (saturated solution), pH 4, aqueous with cosolvent or surfactant or cyclodextrin, CBS 30 mM pH 4.0, PEG 400 50 mg/mL, pH exp 4.4
  solubility at 24 h: 230 µg/mL
Buffered water with excipient (saturated solution), pH 4, aqueous with cosolvent or surfactant or cyclodextrin, CBS 30 mM pH 4.0, PEG 400 500 mg/mL, pH exp 6.3
  solubility at 0 h: 4100 µg/mL
Buffered water with excipient (saturated solution), pH 4, aqueous with cosolvent or surfactant or cyclodextrin, CBS 30 mM pH 4.0, PEG 400 500 mg/mL, pH exp 6.4
  solubility at 24 h: ≥ 4550 µg/mL
Buffered water with excipient (saturated solution), pH 4, aqueous with cosolvent or surfactant or cyclodextrin, CBS 30 mM pH 4.0, PG 50 mg/mL, pH exp 4.1
  solubility at 0 h: 200 µg/mL
Buffered water with excipient (saturated solution), pH 4, aqueous with cosolvent or surfactant or cyclodextrin, CBS 30 mM pH 4.0, PG 50 mg/mL, pH exp 4.3
  solubility at 24 h: 110 µg/mL
Buffered water with excipient (saturated solution), pH 4, aqueous with cosolvent or surfactant or cyclodextrin, CBS 30 mM pH 4.0, PG 100 mg/mL, pH exp 4.1
  solubility at 0 h: 280 µg/mL
Buffered water with excipient (saturated solution), pH 4, aqueous with cosolvent or surfactant or cyclodextrin, CBS 30 mM pH 4.0, PG 100 mg/mL, pH exp 4.4
  solubility at 24 h: 150 µg/mL
Buffered water with excipient (saturated solution), pH 4, aqueous with cosolvent or surfactant or cyclodextrin, CBS 30 mM pH 4.0, PG 500 mg/mL, pH exp 5.4
  solubility at 0 h: 3740 µg/mL
Buffered water with excipient (saturated solution), pH 4, aqueous with cosolvent or surfactant or cyclodextrin, CBS 30 mM pH 4.0, PG 500 mg/mL, pH exp 5.3
  solubility at 24 h: 2200 µg/mL
Buffered water with excipient (saturated solution), pH 5, aqueous with cosolvent or surfactant or cyclodextrin, CBS 30 mM pH 5.0, NaCl 3 mg/mL, SBE-beta-CD 40 mg/mL, pH exp 5.0
  solubility at 0 h: 2240 µg/mL
Buffered water with excipient (saturated solution), pH 5, aqueous with cosolvent or surfactant or cyclodextrin, CBS 30 mM pH 5.0, NaCl 3 mg/mL, SBE-beta-CD 40 mg/mL, pH exp 5.3
  solubility at 24 h: 3520 µg/mL
Buffered water with excipient (saturated solution), pH 5.5, aqueous with cosolvent or surfactant or cyclodextrin, CBS 30 mM pH 5.5, NaCl 3 mg/mL, SBE-beta-CD 40 mg/mL, pH exp 5.5
  solubility at 0 h: 1630 µg/mL
[1]
  solubility at 0 h: 6590 µg/mL
  solubility at 24 h: 5470 µg/mL
Buffered water with excipients, pH 4, aqueous with cosolvent or surfactant or cyclodextrin, ABS (acetate) 30 mM pH 4.0, NaCl 3 mg/mL, SBE-beta-CD 40 mg/mL, pH exp 4.0
  solubility at 0 h: 2880 µg/mL
Buffered water with excipients, pH 4, aqueous with cosolvent or surfactant or cyclodextrin, ABS (acetate) 30 mM pH 4.0, NaCl 3 mg/mL, SBE-beta-CD 40 mg/mL, pH exp 4.6
  solubility at 24 h: 3720 µg/mL
Buffered water with excipients, pH 4, aqueous with cosolvent or surfactant or cyclodextrin, ASBS (aspartate) 30 mM pH 4.0, NaCl 3 mg/mL, SBE-beta-CD 40 mg/mL, pH exp 4.0
  solubility at 0 h: 2880 µg/mL
Buffered water with excipients, pH 4, aqueous with cosolvent or surfactant or cyclodextrin, ASBS (aspartate) 30 mM pH 4.0, NaCl 3 mg/mL, SBE-beta-CD 40 mg/mL, pH exp 4.6
  solubility at 24 h: 3720 µg/mL
Buffered water with excipients, pH 4, aqueous with cosolvent or surfactant or cyclodextrin, CBS 30 mM pH 4.0, NaCl 3 mg/mL, SBE-beta-CD 40 mg/mL + Glycerol 1 mg/mL, pH exp 4.1
  solubility at 0 h: 2400 µg/mL
Buffered water with excipients, pH 4, aqueous with cosolvent or surfactant or cyclodextrin, CBS 30 mM pH 4.0, NaCl 3 mg/mL, SBE-beta-CD 40 mg/mL + Glycerol 1 mg/mL, pH exp 4.3
  solubility at 24 h: 3720 µg/mL
Buffered water with excipients, pH 4, aqueous with cosolvent or surfactant or cyclodextrin, CBS 30 mM pH 4.0, NaCl 3 mg/mL, SBE-beta-CD 40 mg/mL + Glycerol 5 mg/mL, pH exp 4.2
  solubility at 0 h: 2320 µg/mL
Buffered water with excipients, pH 4, aqueous with cosolvent or surfactant or cyclodextrin, CBS 30 mM pH 4.0, NaCl 3 mg/mL, SBE-beta-CD 40 mg/mL + Glycerol 5 mg/mL, pH exp 4.3
  solubility at 24 h: 3710 µg/mL
Buffered water with excipients, pH 4, aqueous with cosolvent or surfactant or cyclodextrin, CBS 30 mM pH 4.0, NaCl 3 mg/mL, SBE-beta-CD 40 mg/mL + Glycerol 50 mg/mL, pH exp 4.1
  solubility at 0 h: 2330 µg/mL
Buffered water with excipients, pH 4, aqueous with cosolvent or surfactant or cyclodextrin, CBS 30 mM pH 4.0, NaCl 3 mg/mL, SBE-beta-CD 40 mg/mL + Glycerol 50 mg/mL, pH exp 4.2
  solubility at 24 h: 3570 µg/mL
Buffered water with excipients, pH 4, aqueous with cosolvent or surfactant or cyclodextrin, CBS 30 mM pH 4.0, NaCl 3 mg/mL, SBE-beta-CD 40 mg/mL + HPMC 5 mg/mL, pH exp 4.1
  solubility at 0 h: 2230 µg/mL
Buffered water with excipients, pH 4, aqueous with cosolvent or surfactant or cyclodextrin, CBS 30 mM pH 4.0, NaCl 3 mg/mL, SBE-beta-CD 40 mg/mL + HPMC 5 mg/mL, pH exp 4.3
  solubility at 24 h: 3530 µg/mL
